From paper PMC6479877, “Development of Chemical Tools to Monitor Human Kallikrein 13 (KLK13) Activity” (International Journal of Molecular Sciences, 2019)
Where a SMILES comes first, the peptide text is derived from it. The star is where a group is joined. Biotin = O=C1N[C@H]2[C@H](CS[C@H]2CCCCC(=O)*)N1; AEA = NCCOCC(=O)O; CH2Cl = ClC*

Tests used:
KLK13 [1] = biological target: T1, KLK13 (Homo sapiens, UniProt Q9UKR3); experiment: Kinetic parameters of substrate hydrolysis by KLK13; format: biochemical; parameters: His6 (the forward primers encode HHHHHH followed by DDDDK; the protein was purified on nickel) (N); made in house; host or cells: Leishmania tarentolae strain T7-TR (LEXSY), secreted to the medium; conditions: KLK13 1.25 × 10^−9 M; for Km / kcat: measured in triplicate, ± SD; for kcat/KM (specificity constant): calculated from kcat and KM
T1 sequence (Q9UKR3 26-277 limits assumed): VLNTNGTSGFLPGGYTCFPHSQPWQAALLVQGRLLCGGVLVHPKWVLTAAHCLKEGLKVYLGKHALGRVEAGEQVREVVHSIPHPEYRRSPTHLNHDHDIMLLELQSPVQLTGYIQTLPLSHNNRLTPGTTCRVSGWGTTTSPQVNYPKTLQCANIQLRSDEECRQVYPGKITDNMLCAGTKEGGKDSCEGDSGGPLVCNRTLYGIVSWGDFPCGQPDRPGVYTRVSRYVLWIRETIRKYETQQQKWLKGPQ
Protocol: The specificity constant (kcat/KM) was calculated from kcat and KM. The details of kinetic studies and the method of calculating kinetic parameters have been described previously.

KLK13 [2] = biological target: T1, KLK13; experiment: Inhibitory activity of CMK inhibitors / activity-based probes against KLK13; format: biochemical; parameters: His6 (the forward primers encode HHHHHH followed by DDDDK; the protein was purified on nickel) (N); made in house; conditions: progress curves method, irreversible inhibition, inhibitor 0–50 µM, Substrate 2 10 µM, KLK13 10 nM, 37 °C, pH 7.5, mean ± SD of three replicates
Protocol: The kinetic parameters of inhibition were determined using a progress curve model for irreversible inhibition, as described previously. […] Upon the addition of KLK13 (final concentration 10 nM), the fluorescence of the hydrolyzed substrate was monitored in each sample at excitation and emission wavelengths of 320 and 450 nm, respectively, for 1 h using a microplate reader Gemini EM (Molecular Devices, Berkshire, UK). The reactions were carried out in 200 µL of final volume of 50 mM Tris-Cl (pH 7.5) containing 1 mM EDTA and 0.5 μM heparin at 37 °C. Progress curves were fitted to the resulting data points and then kobs derived from each curve was plotted against inhibitor concentration. Final values of kass were calculated by linear regression and presented as mean ± SD of three independent replicates.

KLK13 [3] = biological target: T1, KLK13; experiment: Detection of KLK13 using biotinylated ABPs (streptavidin-HRP Western blot); format: binding; parameters: His6 (the forward primers encode HHHHHH followed by DDDDK; the protein was purified on nickel) (N); made in house; host or cells: Leishmania tarentolae strain T7-TR (LEXSY), secreted to the medium; conditions: 1 µM probe, TNET buffer, 1 h at 37 °C; twofold dilutions of KLK13 500 to 4 ng
Protocol: Purified active KLK13 (250 ng) was preincubated with increasing concentrations of Bt-PEG-VRFR-CMK or Bt-VRFR-CMK in TNET buffer (0.1 M Tris-HCl, 150 mM NaCl, 5 mM EDTA, 0.05% Tween-20, pH 7.5) for 1 h at 37 °C. Samples were analyzed by SDS-PAGE followed by wet electrotransfer onto a PVDF membrane (GE Healthcare). Membranes were blocked in 5% BSA in TBS buffer (50 mM Tris-HCl, 0.5 M NaCl, pH 7.5) with 0.1% Tween overnight, at 4 °C, followed by incubation with 1:10,000 diluted Streptavidin-HRP (Sigma Aldrich, S2438, Poznan, Poland) for 2 h at RT. After intensive washing with TBS buffer with 0.1% Tween, the signal was developed with Pierce ECL WB substrate (Thermo Fisher Scientific) and visualized manually using AGFA films (Agfa HealthCare, Mortsel, Belgium). To establish the detection limit, decreasing amounts of active KLK13 (ranging from 3.9-500 ng) were preincubated with 1 µM Bt-PEG-VRFR-CMK in TNET buffer for 1 h at 37 °C and visualized by streptavidin-HRP Western blot as described above.

KLK13 [4] = biological target: T1, KLK13; experiment: Detection limit of KLK13 activity with the substrates; format: biochemical; parameters: His6 (the forward primers encode HHHHHH followed by DDDDK; the protein was purified on nickel) (N); made in house; host or cells: Leishmania tarentolae strain T7-TR (LEXSY), secreted to the medium; conditions: constant amount of substrate, decreasing KLK13; 50 mM Tris-Cl pH 7.5, 1 mM EDTA, 0.5 μM heparin, 37 °C
Protocol: The detection limit was established by analyzing the correlation between an increase in absorbance/fluorescence and enzyme concentration at constant quantities of each, ABZ-Val-Arg-Phe-Arg-ANB-NH2 (Substrate 1) and ABZ-[…]3-NO2)-NH2 (Substrate 2).
Int. J. Mol. Sci. 2019, 20, x FOR PEER REVIEW 2 of 2
Figure S2. Detection limit and pH optimum of KLK13 as determined for the optimized substrates.
Substrates 1 (A) and 2 (B) were titrated with decreasing amounts of KLK13 in 50 mM Tris-Cl (pH 7.5) buffer containing 1 mM EDTA and 0.5 μM heparin at 37 °C. ( C) pH dependence of KLK13. Processing […]
of ABZ-[…]3-NO 2)-NH2 by KLK13 was monitored at pH range of 3 to 10 (citric acid/sodium citrate, sodium acetate/acetic acid, MES, MOPS, HEPES and TRIS buffers).
Reaction progress was monitored by fluorescence detection at the excitation and emission wavelength […]
(1 picture or pasted object on this page, not shown here)

[5] = system: KLK1, KLK2, KLK3, KLK4, KLK6, KLK8, KLK12; experiment: Selectivity assessment of substrate 2: other kallikreins; format: biochemical; conditions: substrate 6.15 μM, enzymes 1.25 nM, 37 °C, 50 mM Tris-Cl pH 7.5, 1 mM EDTA, 0.5 μM heparin; fluorescence 450 nm
Protocol: (§1) Substrate 2 (6.15 μM) was incubated with tested kallikreins (KLK1, KLK2, KLK3, KLK4, KLK6, KLK8, KLK12, KLK13) and cathepsins (CatX, CatL, CatS, CatD, CatH, CatB), all at a concentration of 1.25 nM, at 37 °C in 50 mM Tris-Cl (pH 7.5) buffer containing 1 mM EDTA and 0.5 μM heparin. Proteolytic activity was assayed as an increase in fluorescence at 450 nm.

[6] = system: cathepsins (CatX, CatL, CatS, CatD, CatH, CatB); experiment: Selectivity assessment of substrate 2: cathepsins; format: biochemical; conditions: substrate 6.15 μM, enzymes 1.25 nM, 37 °C, 50 mM Tris-Cl pH 7.5, 1 mM EDTA, 0.5 μM heparin; fluorescence 450 nm
Protocol: as §1

KLK13 [7] = biological target: T1, KLK13; experiment: Site of hydrolysis by RP-HPLC with fluorescence detection and MS; format: biochemical; parameters: His6 (the forward primers encode HHHHHH followed by DDDDK; the protein was purified on nickel) (N); made in house; host or cells: Leishmania tarentolae strain T7-TR (LEXSY), secreted to the medium; conditions: RP-HPLC with fluorescence detection coupled to MS
Protocol: The site of hydrolysis was determined after each step of deconvolution of primed site library and for both final substrates (1 and 2) by RP-HPLC monitored by fluorescence detection and MS.

KLK13 [8] = biological target: T1, KLK13; experiment: pH dependence of KLK13 activity; format: biochemical; parameters: His6 (the forward primers encode HHHHHH followed by DDDDK; the protein was purified on nickel) (N); made in house; host or cells: Leishmania tarentolae strain T7-TR (LEXSY), secreted to the medium; conditions: KLK13 1.25 nM, substrate 6.15 µM, 37 °C, buffers pH 3 to 10
Protocol: The pH dependence of KLK13 (1.25 nM) was established at 37 °C using substrate 2 (6.15 µM) in following buffers: citric acid/sodium citrate (pH 3), sodium acetate/acetic acid (pH 4 and 5), MES (pH 6), MOPS (pH 7), HEPES (pH 8) and TRIS (pH 9 and 10).

Row | Molecule | Km (KLK13 [1]) [µM] | kcat (KLK13 [1]) [s⁻¹] | kcat/KM (specificity constant) (KLK13 [1]) | further results
1 | ABZ-VRFRSTG-Tyr(3-NO2)-NH2 [optimized substrate differing only at the P3′ position (Gly)] | 19.7 ± 3 | 169.40 ± 12.40 | (8.62 ± 0.37) ×10^6 M^−1·s^−1 | 
2 | CC(C)[C@H](NC(=O)COCCNC(=O)CCCC[C@@H]1SC[C@@H]2NC(=O)N[C@@H]21)C(=O)N[C@@H](CCCNC(=N)N)C(=O)N[C@@H](Cc1ccccc1)C(=O)N[C@@H](CCCNC(=N)N)C(=O)CCl [Bt-PEG-VRFR-CMK, Bt-PEG-Val-Arg-Phe-Arg-CMK] ({Biotin-AEA}-VRFR-CH2Cl) |  |  |  | kass (KLK13 [2]): 204 ± 23 M⁻¹ s⁻¹; Detection limit of purified KLK13 in Western blot (KLK13 [3]): ~15 ng
3 | ABZ-VRFRSTE-Tyr(3-NO2)-NH2 [optimized substrate differing only at the P3′ position (Glu)] | 24.7 ± 5.8 | 91.11 ± 11.61 | (3.69 ± 0.40) ×10^6 M^−1·s^−1 | 
4 | ABZ-Val-Arg-Phe-Arg-ANB-NH2 [Substrate 1, kinetically preferred non-primed fluorogenic/chromogenic KLK13 substrate] | 17.8 ± 2.8 | 94.36 ± 3.05 | over 5 × 10^6 M^−1·s^−1 | kcat/KM (specificity constant) (KLK13 [1]; listed as ABZ-VRFR-ANB-NH2 (1)): (5.31 ± 0.34) ×10^6 M^−1·s^−1; KLK13 concentration at which fluorescence increase was still detectable (KLK13 [4]): 1.56 nM
5 | ABZ-Val-Arg-Phe-Arg-Ser-Thr-Gln-Tyr(3-NO2)-NH2 [Substrate 2, internally quenched fluorogenic KLK13 substrate spanning P4-P3′] | 10 ± 1.9 | 96.43 ± 7.15 |  | Cleavage by other kallikreins relative to the activity of KLK13 [5]: ≤ 20%; Hydrolysis by cathepsins [6]: None of tested cathepsins hydrolyzed; kcat/KM (specificity constant) (KLK13 [1]; listed as ABZ-VRFRSTQ-Tyr(3-NO2)-NH2 (2)): (9.64 ± 1.08) ×10^6 M^−1·s^−1; kcat/KM (specificity constant) (KLK13 [1]; listed as ABZ-Val-Arg-Phe-Arg-Ser-Thr-Gln-Tyr(3-NO2)-NH2): ≈ 10^7 M^−1·s^−1; kcat/KM (specificity constant) (KLK13 [1]; listed as substrate 2): ~1e+07 M⁻¹ s⁻¹; KLK13 concentration at which fluorescence increase was still detectable (KLK13 [4]): 0.0488 nM; Site of hydrolysis by KLK13 (KLK13 [7]): exclusively hydrolyzed at the Arg-Ser peptide bond; Optimal pH for processing of the substrate by KLK13 (KLK13 [8]): 9
6 | ABZ-VRFRSTS-Tyr(3-NO2)-NH2 [optimized substrate differing only at the P3′ position (Ser)] | 14.7 ± 2.2 | 113.12 ± 6.87 | (7.71 ± 0.67) ×10^6 M^−1·s^−1 | 
7 | CC(C)[C@H](NC(=O)CCCC[C@@H]1SC[C@@H]2NC(=O)N[C@@H]21)C(=O)N[C@@H](CCCNC(=N)N)C(=O)N[C@@H](Cc1ccccc1)C(=O)N[C@@H](CCCNC(=N)N)C(=O)CCl [Bt-VRFR-CMK, Bt-Val-Arg-Phe-Arg-CMK] (Biotin-VRFR-CH2Cl) |  |  |  | kass (KLK13 [2]): 49 ± 2 M⁻¹ s⁻¹
